In patent publication US7759337B2, “Phthalazine compounds and methods of use” (Amgen Inc., priority 2005, dated 2010):

test system: production of TNF by monocytes activated with bacterial lipopolysaccharide (LPS); test: Lipopolysaccharide-activated monocyte TNF production assay; type: cell-based; settings: Homo sapiens; whole blood monocyte assay (LPS induced TNF release)
Summary of the method: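 Adherent human PBMC-derived monocytes preincubated 60 min with nine two-fold compound dilutions, then stimulated with E. coli K532 LPS (30 ng/mL in the added medium) for 4 h at 37 °C. Supernatant TNF measured by sandwich ELISA; IC50 is the compound concentration halving TNF production, from second-order polynomial fits.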

**Q.** Which IC50 does the source give for Fc1ccc(Oc2ccc3c(N4C[C@@H]5C[C@H]4CO5)nncc3c2)cc1 [Example 350, (1S,4S)-5-[6-(4-fluorophenoxy)phthalazin-1-yl]-2-oxa-5-azabicyclo[2.2.1]heptane] here?
**A.** ≤ 5 µM

**Q.** For Fc1ccc(Oc2ccc3c(-c4cncnc4)nncc3c2)cc1 [Example 351, 6-(4-fluorophenoxy)-1-pyrimidin-5-ylphthalazine], which IC50 is on record?
**A.** ≤ 5 µM

**Q.** Which IC50 does the source give for Cc1ccccc1-c1nncc2cc(Oc3cccc(C(=O)NC4CC4)c3)ccc12 [Example 352, N-cyclopropyl-3-{[1-(2-methylphenyl)phthalazin-6-yl]oxy}benzamide] here?
**A.** ≤ 5 µM

**Q.** With CS(=O)(=O)N1CCN(c2nncc3cc(Oc4ccc(F)cc4)ccc23)CC1 [Example 353, 6-(4-fluorophenoxy)-1-[4-(methylsulfonyl)piperazin-1-yl]phthalazine] as the compound, how does the IC50 read?
**A.** ≤ 5 µM

**Q.** Cc1ccccc1-c1nncc2cc(Oc3cccc(C(=O)O)c3)ccc12 [Example 354, 3-{[1-(2-methylphenyl)phthalazin-6-yl]oxy}benzoic acid] was tested. Which IC50 did it give?
**A.** ≤ 5 µM

**Q.** With Cc1ccccc1-c1nncc2cc(Oc3cccc(F)c3)ccc12 [Example 355, 6-(3-fluorophenoxy)-1-(2-methylphenyl)phthalazine] as the compound, how does the IC50 read?
**A.** ≤ 5 µM

**Q.** Fc1ccc(Oc2ccc3c(N4CCOCC4)nncc3c2)c(F)c1 [Example 356, 6-(2,4-difluorophenoxy)-1-morpholin-4-ylphthalazine] was tested. Which IC50 did it give?
**A.** ≤ 5 µM

**Q.** How did the IC50 turn out when Cc1ccc(S(N)(=O)=O)cc1-c1ccc2c(NC(C)C)nncc2c1 [Example 357, 3-[1-(isopropylamino)phthalazin-6-yl]-4-methylbenzenesulfonamide] was run?
**A.** ≤ 5 µM

**Q.** CNS(=O)(=O)c1ccc(C)c(-c2ccc3c(NC(C)C)nncc3c2)c1 [Example 358, 3-[1-(isopropylamino)phthalazin-6-yl]-N,4-dimethylbenzenesulfonamide] was tested. Which IC50 did it give?
**A.** ≤ 5 µM

**Q.** Which IC50 does the source give for Cc1ccc(S(=O)(=O)NC2CC2)cc1-c1ccc2c(NC(C)C)nncc2c1 [Example 359, N-cyclopropyl-3-[1-(isopropylamino)phthalazin-6-yl]-4-methylbenzenesulfonamide] here?
**A.** ≤ 5 µM

**Q.** Which IC50 does the source give for Cc1ccc(S(=O)(=O)NC2CC2)cc1-c1ccc2c(N3CCOCC3)nncc2c1 [Example 360, N-cyclopropyl-4-methyl-3-(1-morpholin-4-ylphthalazin-6-yl)benzenesulfonamide] here?
**A.** ≤ 5 µM

**Q.** How did the IC50 turn out when CCNC(=O)c1ccc(C)c(-c2ccc3c(CC(C)C)nncc3c2)c1 [Example 361, N-ethyl-3-(1-isobutylphthalazin-6-yl)-4-methylbenzamide] was run?
**A.** ≤ 5 µM

**Q.** For CCOC(=O)c1ccc(C)c(-c2ccc3c(C(C)C)nncc3c2)c1 [Example 362, ethyl 3-(1-isopropylphthalazin-6-yl)-4-methylbenzoate], which IC50 is on record?
**A.** ≤ 5 µM

**Q.** With CCNC(=O)c1ccc(C)c(-c2ccc3c(C(C)C)nncc3c2)c1 [Example 363, N-ethyl-3-(1-isopropylphthalazin-6-yl)-4-methylbenzamide] as the compound, how does the IC50 read?
**A.** ≤ 5 µM

**Q.** Which IC50 does the source give for Cc1cc(S(N)(=O)=O)ccc1-c1nncc2cc(Oc3ccc(F)cc3)ccc12 [Example 364, 4-[6-(4-fluorophenoxy)phthalazin-1-yl]-3-methylbenzenesulfonamide] here?
**A.** ≤ 5 µM

**Q.** For CC[C@H](C)Nc1nncc2cc(-c3c(C)ccc4c(NC)noc34)ccc12 [Example 365, 6-[6-methyl-3-(methylamino)-1,2-benzisoxazol-7-yl]-N-[(1S)-1-methylpropyl]phthalazin-1-amine], which IC50 is on record?
**A.** ≤ 5 µM

**Q.** CC[C@@H](C)Nc1nncc2cc(-c3c(C)ccc4c(NC)noc34)ccc12 [Example 366, 6-[6-methyl-3-(methylamino)-1,2-benzisoxazol-7-yl]-N-[(1R)-1-methylpropyl]phthalazin-1-amine] was tested. Which IC50 did it give?
**A.** ≤ 5 µM

**Q.** Cc1ccc2c(N)nsc2c1-c1ccc2c(N3CCOC[C@@H]3C)nncc2c1 [Example 367, 6-methyl-7-{1-[(3S)-3-methylmorpholin-4-yl]phthalazin-6-yl}-1,2-benzisothiazol-3-amine] was tested. Which IC50 did it give?
**A.** ≤ 5 µM

**Q.** With Cc1ccc(C(N)=O)cc1-c1ccc2c(N3C[C@H](C)N(CC(F)(F)F)C[C@H]3C)nncc2c1 [Example 368, 3-{1-[(2R,5S)-2,5-dimethyl-4-(2,2,2-trifluoroethyl)piperazin-1-yl]phthalazin-6-yl}-4-methylbenzamide] as the compound, how does the IC50 read?
**A.** ≤ 5 µM

**Q.** For Cc1ccc(C(=O)NC2CC2)cc1-c1ccc2c(NC(C)c3ccccn3)nncc2c1 (stereo not drawn) [Example 369, N-cyclopropyl-4-methyl-3-{1-[(1-pyridin-2-ylethyl)amino]phthalazin-6-yl}benzamide], which IC50 is on record?
**A.** ≤ 5 µM

**Q.** Which IC50 does the source give for Cc1ccc2c(NC3CC3)noc2c1-c1ccc2c(NC(C)C)nncc2c1 [Example 370, 6-[3-(cyclopropylamino)-6-methyl-1,2-benzisoxazol-7-yl]-N-isopropylphthalazin-1-amine] here?
**A.** ≤ 5 µM

**Q.** For CC(=O)N1CCN(c2nncc3cc(-c4cc(C(=O)NC5CC5)ccc4C)ccc23)[C@@H](C)C1 [Example 371, 3-{1-[(2S)-4-acetyl-2-methylpiperazin-1-yl]phthalazin-6-yl}-N-cyclopropyl-4-methylbenzamide], which IC50 is on record?
**A.** ≤ 5 µM

**Q.** Which IC50 does the source give for CNc1noc2c(-c3ccc4c(NC(C)C)nncc4c3)c(C)ccc12 [Example 372, N-isopropyl-6-[6-methyl-3-(methylamino)-1,2-benzisoxazol-7-yl]phthalazin-1-amine] here?
**A.** ≤ 5 µM

**Q.** How did the IC50 turn out when CNc1noc2c(-c3ccc4c(N5CCOC[C@H]5C)nncc4c3)c(C)ccc12 [Example 373, N,6-dimethyl-7-{1-[(3R)-3-methylmorpholin-4-yl]phthalazin-6-yl}-1,2-benzisoxazol-3-amine] was run?
**A.** ≤ 5 µM

**Q.** Which IC50 does the source give for Cc1ccccc1-c1nncc2cc(-c3c(C)ccc4c(NC5CC5)noc34)ccc12 [Example 374, N-cyclopropyl-6-methyl-7-[1-(2-methylphenyl)phthalazin-6-yl]-1,2-benzisoxazol-3-amine] here?
**A.** ≤ 5 µM

**Q.** How did the IC50 turn out when COc1ncccc1-c1ccc2c(-c3cccnc3OC)nncc2c1 [Example 375, 1,6-bis(2-methoxypyridin-3-yl)phthalazine] was run?
**A.** ≤ 5 µM

**Q.** With Cc1ccc(C(=O)NC2CC2)cc1-c1ccc2c(N3C[C@H](C)N(CC(F)(F)F)C[C@H]3C)nncc2c1 [Example 376, N-cyclopropyl-3-{1-[(2R,5S)-2,5-dimethyl-4-(2,2,2-trifluoroethyl)piperazin-1-yl]phthalazin-6-yl}-4-methylbenzamide] as the compound, how does the IC50 read?
**A.** ≤ 5 µM

**Q.** Cc1cc(F)ccc1-c1nncc2cc(-c3c(C)ccc4c(NC5CC5)noc34)ccc12 [Example 377, N-cyclopropyl-7-[1-(4-fluoro-2-methylphenyl)phthalazin-6-yl]-6-methyl-1,2-benzisoxazol-3-amine] was tested. Which IC50 did it give?
**A.** ≤ 5 µM

**Q.** With Cc1ccccc1-c1nncc2cc(-c3c(C)ccc(C(=N)NC4CC4)c3O)ccc12 [Example 378, N-cyclopropyl-2-hydroxy-4-methyl-3-[1-(2-methylphenyl)phthalazin-6-yl]benzenecarboximidamide] as the compound, how does the IC50 read?
**A.** ≤ 5 µM

**Q.** How did the IC50 turn out when CCOC(=O)N1CCN(c2nncc3cc(-c4cc(C(=O)NC5CC5)ccc4C)ccc23)[C@@H](C)C1 [Example 379, ethyl(3S)-4-(6-{5-[(cyclopropylamino)carbonyl]-2-methylphenyl}phthalazin-1-yl)-3-methylpiperazine-1-carboxylate] was run?
**A.** ≤ 5 µM

**Q.** Cc1cc(NC(=O)c2ccc(C)c(-c3ccc4c(N5CCOCC5)nncc4c3)c2)no1 [Example 380, 4-methyl-N-(5-methylisoxazol-3-yl)-3-(1-morpholin-4-ylphthalazin-6-yl)benzamide] was tested. Which IC50 did it give?
**A.** ≤ 5 µM

**Q.** Cc1ccc2c(NC(C)(C)C)noc2c1-c1ccc2c(N3CCOC[C@@H]3C)nncc2c1 [Example 381, N-(tert-butyl)-6-methyl-7-{1-[(3S)-3-methylmorpholin-4-yl]phthalazin-6-yl}-1,2-benzisoxazol-3-amine] was tested. Which IC50 did it give?
**A.** ≤ 5 µM

**Q.** With Cc1cc(F)ccc1-c1nncc2cc(-c3ccc(Cl)c4c(NC5CC5)noc34)ccc12 [Example 382, 4-chloro-N-cyclopropyl-7-[1-(4-fluoro-2-methylphenyl)phthalazin-6-yl]-1,2-benzisoxazol-3-amine] as the compound, how does the IC50 read?
**A.** ≤ 5 µM

**Q.** CC(=O)N1CCN(c2nncc3cc(-c4cc(C(N)=O)ccc4C)ccc23)[C@@H](C)C1 [Example 383, 3-{1-[(2S)-4-acetyl-2-methylpiperazin-1-yl]phthalazin-6-yl}-4-methylbenzamide] was tested. Which IC50 did it give?
**A.** ≤ 5 µM

**Q.** How did the IC50 turn out when CCNc1noc2c(-c3ccc4c(N5CCOC[C@@H]5C)nncc4c3)c(C)ccc12 [Example 384, N-ethyl-6-methyl-7-{1-[(3S)-3-methylmorpholin-4-yl]phthalazin-6-yl}-1,2-benzisoxazol-3-amine] was run?
**A.** ≤ 5 µM

**Q.** How did the IC50 turn out when Cc1ccc2c(N)noc2c1-c1ccc2c(NC(C)C)nncc2c1 [Example 385, 6-(3-amino-6-methyl-1,2-benzisoxazol-7-yl)-N-isopropylphthalazin-1-amine] was run?
**A.** ≤ 5 µM

**Q.** Which IC50 does the source give for Cc1ccccc1-c1ccc2c(-c3ccccc3C)nncc2c1 [Example 386, 1,6-bis(2-methylphenyl)phthalazine] here?
**A.** ≤ 5 µM

**Q.** Cc1ccc2c(N)noc2c1-c1ccc2c(N3CCOC[C@@H]3C)nncc2c1 [Example 387, 6-methyl-7-{1-[(3S)-3-methylmorpholin-4-yl]phthalazin-6-yl}-1,2-benzisoxazol-3-amine] was tested. Which IC50 did it give?
**A.** ≤ 5 µM

**Q.** Cc1ccc2c(NC3CC3)noc2c1-c1ccc2c(N3CCOCC3)nncc2c1 [Example 388, N-cyclopropyl-6-methyl-7-(1-morpholin-4-ylphthalazin-6-yl)-1,2-benzisoxazol-3-amine] was tested. Which IC50 did it give?
**A.** ≤ 5 µM

**Q.** CCNc1noc2c(-c3ccc4c(NC(C)C)nncc4c3)c(C)ccc12 [Example 389, 6-[3-(ethylamino)-6-methyl-1,2-benzisoxazol-7-yl]-N-isopropylphthalazin-1-amine] was tested. Which IC50 did it give?
**A.** ≤ 5 µM

**Q.** CC(=O)N1CCN(c2nncc3cc(-c4c(C)ccc5c(NC6CC6)noc45)ccc23)[C@@H](C)C1 [Example 390, 7-{1-[(2S)-4-acetyl-2-methylpiperazin-1-yl]phthalazin-6-yl}-N-cyclopropyl-6-methyl-1,2-benzisoxazol-3-amine] was tested. Which IC50 did it give?
**A.** ≤ 5 µM

**Q.** Which IC50 does the source give for Cc1ccc2c(N)n[nH]c2c1-c1ccc2c(N3CCOC[C@@H]3C)nncc2c1 [Example 391, 6-methyl-7-{1-[(3S)-3-methylmorpholin-4-yl]phthalazin-6-yl}-1H-indazol-3-amine] here?
**A.** ≤ 5 µM
